In ChEMBL document CHEMBL3751773, “A minimally cytotoxic CD4 mimic as an HIV entry inhibitor” (Bioorg Med Chem Lett, 2016):

Legend:
[1] = system: Rhesus monkey; assay: Toxicity in rhesus macaque assessed as decrease in body temperature at 77.8 mg, iv after 24 hrs; type: organism-based, Macaca mulatta; conditions: in vivo
[2] = Toxicity in iv dosed rhesus macaque; type: organism-based, Macaca mulatta; conditions: rhesus monkey, in vivo
[3] = system: Rhesus monkey; assay: Toxicity in rhesus macaque assessed as survival at 77.8 mg, iv measured after 6 months; type: organism-based, Macaca mulatta; conditions: in vivo, 4383 h
[4] = system: Rhesus monkey; assay: Toxicity in rhesus macaque assessed as decrease in body temperature at 77.8 mg, iv measured within 2 hrs; type: organism-based, Macaca mulatta; conditions: in vivo
[5] = system: Rhesus monkey; assay: Toxicity in rhesus macaque assessed as mydriasis at 77.8 mg, iv measured within 2 hrs; type: organism-based, Macaca mulatta; conditions: in vivo
[6] = system: Human immunodeficiency virus 1; assay: Antiviral activity against R5-tropic HIV1 cYTA48P infected in TZM-bl cells by single round assay; type: functional, organism-based; conditions: Human immunodeficiency virus 1, cYTA48P
[7] = Cytotoxicity against mock-infected human PM1 cells expressing CCR5 by WST method; type: cell-based
[8] = Volume of distribution in rhesus macaque plasma at 75 mg, iv after 0 to 24 hrs by HPLC analysis; type: ADME, organism-based, Macaca mulatta; conditions: rhesus monkey
[9] = Initial concentration in rhesus macaque blood at 75 mg, iv after 0 to 24 hrs by HPLC analysis; type: ADME, organism-based, Macaca mulatta; conditions: rhesus monkey
[10] = Half life in rhesus macaque plasma at 75 mg, iv after 0 to 24 hrs by HPLC analysis; type: ADME, organism-based, Macaca mulatta; conditions: rhesus monkey
[11] = system: PM1; assay: Induction of conformational change in R5-tropic HIV1 cYTA48P gp120 infected in human PM1 cells assessed as increase in binding affinity to monoclonal antibody 4C11 at 100 uM after 15 mins by FACS analysis; type: cell-based; conditions: Human immunodeficiency virus 1

SMILES	IC50 [6]	CC50 [7]	Flu intensity [11]	further results
CC1(C)CC(NC(=O)C(=O)Nc2ccc3c(c2)OCO3)CC(C)(C)N1.Cl	–	–	–	Activity [1]: Non-toxic; MTD [2]: 12.5 mg/kg; Activity [3]: Non-toxic; Activity [4]: Toxic; Activity [5]: Toxic
CC1(C)CC(NC(=O)C(=O)Nc2ccc3c(c2)OCO3)CC(C)(C)N1 [listing 1 of 2 here]	6.2 µM	> 300 µM	–	Vd [8]: 37.2 L; C0 [9]: 2090 ng/mL; half-life [10]: 1.75 h
CCOC(=O)C1CCN(NC(=O)C(=O)Nc2ccc3c(c2)OCO3)CC1	> 100 µM	> 200 µM	7.83	–
O=C(Nc1ccc2c(c1)OCO2)C(=O)NC1CC2(CCCCC2)NC2(CCCCC2)C1 (stereo not given)	1.13 µM	> 200 µM	6.93	–
CC1(C)CC(NC(=O)C(=O)Nc2ccc(Cl)cc2)CC(C)(C)N1	0.63 µM	70.4 µM	8.91	–
CC1(C)CC(NC(=O)C(=O)Nc2ccc3c(c2)OCO3)CC(C)(C)N1 [listing 2 of 2 here]	–	–	12.3	–
